{"source": "patent US20210255193A1", "about": "“LYSINE REACTIVE PROBES AND USES THEREOF” (The Scripps Research Institute, priority 2017, published 2021)", "key": {"RTN3 Reticulon-3": {"target": "T1, RTN3 Reticulon-3 (Homo sapiens, UniProt O95197)", "T1 construct": "isoTOP-ABPP experiments performed in cell lysates (in vitro); endogenous in cells; host or cells: MDA-MB-231 soluble lysate", "T1 sequence (O95197 1-1032)": "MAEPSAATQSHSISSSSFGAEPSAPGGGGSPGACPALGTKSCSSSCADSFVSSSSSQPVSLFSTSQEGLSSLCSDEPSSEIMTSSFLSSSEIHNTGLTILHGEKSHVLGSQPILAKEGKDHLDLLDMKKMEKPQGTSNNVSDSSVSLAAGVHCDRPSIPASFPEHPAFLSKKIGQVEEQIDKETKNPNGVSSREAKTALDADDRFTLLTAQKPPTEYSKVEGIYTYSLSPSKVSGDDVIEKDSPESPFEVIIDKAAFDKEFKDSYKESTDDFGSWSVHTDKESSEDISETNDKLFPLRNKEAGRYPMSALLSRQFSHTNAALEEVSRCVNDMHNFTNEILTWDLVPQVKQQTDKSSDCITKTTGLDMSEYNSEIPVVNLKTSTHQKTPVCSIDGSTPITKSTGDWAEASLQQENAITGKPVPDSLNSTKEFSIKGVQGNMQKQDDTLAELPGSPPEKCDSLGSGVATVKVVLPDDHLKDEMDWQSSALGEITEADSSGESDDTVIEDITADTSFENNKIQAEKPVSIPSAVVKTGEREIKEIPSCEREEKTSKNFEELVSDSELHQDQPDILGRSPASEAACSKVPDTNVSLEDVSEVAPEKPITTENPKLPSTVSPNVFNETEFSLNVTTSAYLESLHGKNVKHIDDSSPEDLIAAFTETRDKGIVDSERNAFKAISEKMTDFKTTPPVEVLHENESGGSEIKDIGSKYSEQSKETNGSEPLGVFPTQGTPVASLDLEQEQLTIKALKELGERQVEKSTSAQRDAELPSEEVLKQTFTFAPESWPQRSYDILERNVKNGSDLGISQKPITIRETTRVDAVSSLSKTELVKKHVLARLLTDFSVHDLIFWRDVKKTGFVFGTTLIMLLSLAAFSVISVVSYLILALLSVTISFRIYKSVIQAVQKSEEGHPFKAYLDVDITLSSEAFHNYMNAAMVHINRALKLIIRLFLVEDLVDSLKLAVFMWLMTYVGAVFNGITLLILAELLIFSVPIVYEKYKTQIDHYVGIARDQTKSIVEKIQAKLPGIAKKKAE", "assay": "competitive isoTOP-ABPP", "type": "binding", "settings": "50 uM, in vitro; for isoTOP-ABPP ratio (R) at liganded lysine O95197_K1022: sol, 231; for isoTOP-ABPP reactivity ratio at lysine O95197_K1022: 231 sol", "outline": "(§1)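 Competition format: fragment (50 μM activated ester, 100 μM guanidinylating agent) versus vehicle in lysate, then lysine probe STP-alkyne at 0.1 mM for 1 h. Quantitation by light/heavy TEV-tag MS1 peak areas, reported as R.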"}, "[1]": {"target": "T2, PTRF Polymerase I and transcript release factor (Homo sapiens, UniProt Q6NZI2)", "T2 construct": "isoTOP-ABPP experiments performed in cell lysates (in vitro); endogenous in cells; host or cells: soluble proteome of human cancer cell lines (MDA-MB-231; Ramos and Jurkat also prepared)", "T2 sequence (Q6NZI2 1-390)": "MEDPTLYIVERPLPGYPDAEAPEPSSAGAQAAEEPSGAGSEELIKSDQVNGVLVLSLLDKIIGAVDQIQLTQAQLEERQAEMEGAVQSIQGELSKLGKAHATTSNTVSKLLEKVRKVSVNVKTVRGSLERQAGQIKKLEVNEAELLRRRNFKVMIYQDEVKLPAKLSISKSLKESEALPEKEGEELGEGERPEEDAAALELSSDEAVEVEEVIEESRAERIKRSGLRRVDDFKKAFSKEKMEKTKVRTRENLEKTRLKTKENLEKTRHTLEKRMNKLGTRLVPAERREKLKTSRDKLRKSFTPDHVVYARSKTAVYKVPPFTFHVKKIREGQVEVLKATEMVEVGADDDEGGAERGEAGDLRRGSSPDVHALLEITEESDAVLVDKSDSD", "assay": "competitive isoTOP-ABPP", "type": "binding", "settings": "for isoTOP-ABPP ratio (R) at liganded lysine Q6NZI2_K326: sol, 231", "outline": "as §1"}}, "data": [{"smiles": "CC(C)(C)OC(=O)NCCCC(=O)Oc1ccc([N+](=O)[O-])cc1[N+](=O)[O-]", "note": "[fragment 41, 2,4-Dinitrophenyl 4-((tert-butoxycarbonyl)amino)butanoate]", "values": [{"measurement": "isoTOP-ABPP ratio (R) at liganded lysine O95197_K1022", "setting": "RTN3 Reticulon-3", "result": 1.6}]}, {"smiles": "Cn1cc(CC(=O)Oc2c(F)c(F)c(F)c(F)c2F)c2ccccc21", "note": "[fragment 22, Pentafluorophenyl 2-(1-methyl-1H-indol-3-yl)acetate]", "values": [{"measurement": "R value (DMSO/fragment) for probe 1 labeling", "setting": "[1]; Q6NZI2_K326, 50 uM, 231 sol, in vitro", "result": 20.0}]}, {"smiles": "O=C(Oc1ccc([N+](=O)[O-])cc1[N+](=O)[O-])c1ccc(-c2ccccc2)cc1", "note": "[fragment 37, 2,4-Dinitrophenyl [1,1′-biphenyl]-4-carboxylate]", "values": [{"measurement": "isoTOP-ABPP ratio (R) at liganded lysine Q6NZI2_K326", "setting": "[1]; 50 uM, in vitro", "result": 20.0}]}, {"smiles": "COc1cc(CCC(=O)Oc2ccc([N+](=O)[O-])cc2[N+](=O)[O-])cc(OC)c1OC", "note": "[fragment 33, 2,4-Dinitrophenyl 3-(3,4,5-trimethoxyphenyl)propanoate]", "values": [{"measurement": "isoTOP-ABPP reactivity ratio at lysine O95197_K1022", "setting": "RTN3 Reticulon-3", "result": 1.4}]}, {"smiles": "O=C(CCc1ccc2c(c1)OCO2)Oc1ccc([N+](=O)[O-])cc1[N+](=O)[O-]", "note": "[fragment 45, 2,4-Dinitrophenyl 3-(benzo[d][1,3]dioxol-5-yl)propanoate]", "values": [{"measurement": "isoTOP-ABPP ratio, lysine Q6NZI2_K326", "setting": "[1]; 50 uM_231_sol_in vitro", "result": 0.9}]}, {"smiles": "O=C(Oc1ccc([N+](=O)[O-])cc1[N+](=O)[O-])c1ccccc1Nc1cccc(C(F)(F)F)c1", "note": "[fragment 40, 2,4-Dinitrophenyl 2-((3-(trifluoromethyl)phenyl)amino)benzoate]", "values": [{"measurement": "isoTOP-ABPP ratio (R) at liganded lysine Q6NZI2_K326", "setting": "[1]; 50 uM, in vitro", "result": 20.0}, {"measurement": "isoTOP-ABPP ratio (R) at liganded lysine O95197_K1022", "setting": "RTN3 Reticulon-3", "result": 1.7}]}, {"smiles": "O=C(Oc1ccc([N+](=O)[O-])cc1[N+](=O)[O-])c1ccc(Oc2ccccc2)cc1", "note": "[fragment 39, 2,4-Dinitrophenyl 4-phenoxybenzoate]", "values": [{"measurement": "isoTOP-ABPP ratio (R) at liganded lysine Q6NZI2_K326", "setting": "[1]; 50 uM, in vitro", "result": 0.8}]}, {"smiles": "O=C(Oc1ccc([N+](=O)[O-])cc1[N+](=O)[O-])C(c1ccccc1)c1ccccc1", "note": "[fragment 30, 2,4-Dinitrophenyl 2,2-diphenylacetate]", "values": [{"measurement": "isoTOP-ABPP reactivity ratio at lysine O95197_K1022", "setting": "RTN3 Reticulon-3", "result": 20.0}]}, {"smiles": "O=C(Oc1ccc([N+](=O)[O-])cc1[N+](=O)[O-])C(c1ccccc1)(c1ccccc1)c1ccccc1", "note": "[fragment 42, 2,4-Dinitrophenyl 2,2,2-triphenylacetate]", "values": [{"measurement": "isoTOP-ABPP ratio (R) at liganded lysine O95197_K1022", "setting": "RTN3 Reticulon-3", "result": 1.1}]}, {"smiles": "O=C(CCc1cn(-c2ccccc2)nc1-c1ccccc1)Oc1ccc([N+](=O)[O-])cc1[N+](=O)[O-]", "note": "[fragment 29, 2,4-Dinitrophenyl 3-(1,3-diphenyl-1H-pyrazol-4-yl)propanoate]", "values": [{"measurement": "isoTOP-ABPP reactivity ratio at lysine Q6NZI2_K326", "setting": "[1]; 50 uM, 231 sol, in vitro", "result": 20.0}, {"measurement": "isoTOP-ABPP reactivity ratio at lysine O95197_K1022", "setting": "RTN3 Reticulon-3", "result": 6.2}]}, {"smiles": "CCn1cc(C(=O)Oc2c(F)c(F)c(F)c(F)c2F)c(=O)c2ccc(C)nc21", "note": "[fragment 28, Pentafluorophenyl 1-ethyl-7-methyl-4-oxo-1,4-dihydro-1,8-naphthyridine-3-carboxylate]", "values": [{"measurement": "isoTOP-ABPP reactivity ratio at lysine O95197_K1022", "setting": "RTN3 Reticulon-3", "result": 1.2}]}]}
